Results from patent publication US20230203060A1 (GENFLEET THERAPEUTICS (SHANGHAI) INC., priority 2020, published 2023).

Experiments:
Type in all cases: cell-based, human
[1] = test system: KRAS G12C mutant NCI-H358 cells; experiment: Cell proliferation inhibition experiment, 3D spheroid, CellTiter-Glo, NCI-H358; settings: Homo sapiens, NCI-H358, 120 h, NCI-H358 (KRAS G12C mutant) 3D spheroid, 5 days with compound, CellTiter-Glo; read-out: H358 IC50
In short: (§1)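 Cells seeded in 2% FBS medium in spheroid plates (800 H358 or 400 A549 per well), grown overnight to form 3D spheroids, then exposed to 3.16-fold compound dilutions (0.1% DMSO) for 5 days. CellTiter-Glo luminescence gave inhibition vs DMSO and medium blanks; IC50 by four-parameter fit.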

[2] = test system: A549 cells (KRAS G12S mutant); experiment: Cell proliferation inhibition experiment, 3D spheroid, CellTiter-Glo, A549; settings: Homo sapiens, A549, 120 h, A549 (KRAS G12S mutant) 3D spheroid, 5 days with compound, CellTiter-Glo; read-out: A549 IC50
In short: as §1

[3] = test system: KRAS G12C mutant MIA PaCa-2 cells; experiment: Cell proliferation inhibition experiment, 3D spheroid, CellTiter-Glo, MIA PaCa-2; settings: Homo sapiens, MIA PaCa-2, 120 h, 3D cell model in 384-well spheroid plate, 5 days, CellTiter-Glo; read-out: MIA-PaCa2 IC50
In short: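 200 MIA PaCa-2 cells/well grown overnight as 3D spheroids, then exposed to 3.16-fold compound dilutions (0.1% DMSO final) for 5 days. Viability read by CellTiter-Glo luminescence; inhibition calculated against DMSO and medium-only controls, and IC50 fitted by four-parameter model.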

## C=CC(=O)N1CCN2C(=O)c3c(N4CC(O)CC4(C)C)nc(-c4c(O)cccc4F)c(Cl)c3OC[C@H]2C1 (stereo partly drawn) [Z50, (6aR)-8-amyloyl-4-chloro-3-(2-fluoro-6-hydroxyphenyl)-1-(4-hydroxy-2,2-dimethylpyrrolidin-1-yl)-6,6a,7,8,9,10-hexahydro-12H-pyrazino[2,1-c]pyrido[3,4-f][1,4]oxazepin-12-one]
[1]
  IC50: 2 nM
[2]
  IC50: > 5000 nM
[3]
  IC50: 2 nM

## C=CC(=O)N1CCN2C(=O)c3c(N4C[C@H](N(C)CCOC)CC4(C)C)nc(-c4ccccc4F)c(Cl)c3OC[C@H]2C1 (single isomer, unassigned) [Z406-1]
[1]
  IC50: 4 nM
[2]
  IC50: 2120 nM
[3]
  IC50: 10 nM
